“Also recorded” adds a separate entry of the source.
System: orofacial inflammatory pain
Test: thermal operant orofacial pain test after carrageenan-induced orofacial inflammation
Assay type: in vivo, Male Sprague Dawley rats
Protocol: General. Male Sprague Dawley rats (200-300 g, N=18) were lightly anesthetized using isoflurane (1-2.5%, inhalation) and their hair was bilaterally removed (FIG. 1) from the orofacial region using clippers, followed by depilatory cream 1 day prior to behavioral testing. Excess cream was removed with a moistened paper towel to minimize skin irritation. Rats were food fasted for 12-15 hours prior to each testing session and following each session were provided with standard food chow. Animals were tested at the same time of the day and a recovery day from the fasting was included between the testing sessions to minimize nutritional differences from their normal food routine. Water was made available ad libitum before and after testing sessions and animal weight was recorded daily. The animals were then brought into the behavioral procedure room 1 hour prior to testing and allowed to acclimate to the temperature and ambient noise of the room. Animal testing procedures and general handling complied with the ethical guidelines and standards established by the Institutional Animal Care and Use Committee at the University of Florida and all procedures complied with the Guide for Care and Use of Laboratory Animals (Council, 1996).
Thermal Testing. A testing cage (20.3 cm W×20.3 cm D×16.2 cm H) with acrylic walls was constructed with an opening in one wall (4×6 cm) which was lined with grounded metal (aluminum) tubing. The tubing served as a thermode when connected to a water pump (Model RTE110B, NES Laboratories, Inc.) via flexible polyethylene tubing through which heated water (range: 37.7-57.2° C.) was circulated (FIGS. 2A and 2B). A standard rodent watering bottle containing a diluted (1:2 with water) sweetened condensed milk solution (Nestle Carnation Company, room temperature) was mounted outside the cage. The circulating water pump was activated and the appropriate temperature was set prior to testing the animals. The room temperature was maintained at 22±1° C. for all behavioral tests.
Unrestrained animals were placed separately in a testing cage, and the data acquisition system was activated (WinDaq Lite Data Acq DI-194, DATAQ Instruments, Inc). The bottle was then positioned in proximity to the cage such that the animal was allowed access to the reward bottle when simultaneously contacting the thermode with its face. The metal spout on the watering bottle was connected to a 13-volt DC power supply and, in series, to a multi-channel data acquisition module (WinDaq Lite Data Acq DI-194, DATAQ Instruments, Inc.). When the rat drank from the water bottle, the skin on its shaved face contacted the grounded thermode, and the animal's tongue contacted the metal spout on the water bottle, completing an electrical circuit (FIG. 2A). The bottle position was adjusted horizontally and vertically to facilitate contact of the thermode within the same shaved area of the face for each animal (FIG. 2B). The closed circuit was registered in the computer and data were collected at 60 Hz for the entire length of the experiment. Each spout contact was recorded as a ‘licking’ event. A separate circuit was established from the metal thermode to the animal by grounding the floor with an aluminum sheet for recording of ‘facial contact’ events (FIG. 3). The latter circuit was necessary to determine if the animal made an attempt at the reward bottle but was discouraged by the temperature of the thermode. The duration of each facial contact and the total number of events (licking, facial contact) were recorded. The investigator monitored online data acquisition to ensure that each recorded licking event from the first circuit corresponded to a recorded facial contact on the tubing (the second circuit). […]

[1] = one animal, retested 30 minutes after morphine 0.5 mg/kg s.c., post-inflammation

`CN1CC[C@]23c4c5ccc(O)c4O[C@H]2[C@@H](O)C=C[C@H]3[C@H]1C5` [morphine] was tested, and the “effect on inflammatory hyperalgesia (operant outcome measures)” value (morphine 0.5 mg/kg s.c. 30 minutes prior to testing, 2.5 hours post-carrageenan, 45.5° C., N=6) was “all but one of these effects was completely reversed; also recorded: completely blocked”, the “operant outcome measures of morphine-treated inflamed animals versus normal animals” value (morphine-treated animals tested at 45.5° C., all measures except facial contact events) was “comparable to normal animals tested at 37.7 °C” and the “intake (post-morphine)” value (one animal, retested 30 minutes after morphine 0.5 mg/kg s.c., given after the 3 hours post-inflammation trial, 30-minute operant trial) was 17.8 g. The “facial contact duration (post-morphine)” value [1] was 634 s, the “facial contacts (post-morphine)” value [1] was 309 and the “licking events (post-morphine)” value [1] was 3582. The “ratio facial duration/facial contact (post-morphine)” value [1] was 2.05, the “ratio licking/contact events (post-morphine)” value [1] was 11.6 and the “operant responses after morphine, pain indices (FIG. 7)” value (single animal, repeated testing following carrageenan, before and after morphine) was “analgesic response”.
In the case of carrageenan, the “effect of carrageenan inflammation on operant outcome measures” value (carrageenan 6 mg s.c. mid-cheek bilaterally, tested 3 hours post-inflammation at 45.5° C., all measures except facial contact events (FIG. 6)) is reported as “significant reduction”.
